Measurements from patent US9629816B2, “Small molecule therapeutic compounds targeting thioesterase deficiency disorders and methods of using the same” (The United States of America, as represented by the …, priority 2011, dated 2017).
Where “and” joins values, the source holds several entries; their conditions need not be identical. Equal entries are not always repeated.

Legend:
INCL lymphoblasts = experiment: H2O2-induced apoptosis in INCL lymphoblasts (annexin V, FACS); format: cell-based, human; conditions: 1 mM NtBuHA 12 hours
Method: To evaluate whether NtBuHA protects against oxidative stress-induced apoptosis in INCL lymphoblasts the cells were treated with 1 mM NtBuHA for 12 hours and then incubated with 500 μM H2O2 for 3 hours in presence or absence of NtBuHA (1 mM). Untreated INCL lymphoblasts were also treated with H2O2 for 3 hours. For the detection of apoptosis the cells were stained with annexin V using Apoptosis detection kit (Biovision) and analyzed by FACS (Guava EasyCyte Mini System, Millipore).
Moreover, in these cells antisense-mediated inhibition of PPT1 leads to increased apoptosis. […] In addition, increased neuronal apoptosis in the brain of PPT1-KO mice has also been reported. […] Thus, the inventors sought to determine whether the NtBuHA-treatment protects cultured immortalized INCL lymphoblasts from oxidative-stress mediated apoptosis. Cultured lymphoblasts from INCL patients were chosen because PPT1 is expressed in all tissues and PPT 1-deficiency in cultured lymphoblasts and fibroblasts from INCL patients show virtually identical pathological changes (accumulation of ceroid, GRODs and increased apoptosis) as are found in postmortem neuronal tissues from such patients. […] Apoptosis of the H2O2-treated cells was then quantitated by florescence activated cell sorting (FACS) analysis.

[1] = Cleavage of thioester linkage in [14C]palmitoyl-CoA, release of free [14C]palmitate (TLC, autoradiography); format: biochemical; conditions: varying concentrations; various incubation times; [14C]palmitate production
Method: It has been reported that thioester linkages in s-acylated proteins are labile, and that compounds having nucleophilic properties are able to disrupt such linkages. Thus, the ability of derivatives of hydroxylamine to disrupt thioester linkages in s-acylated proteins was tested. Twelve HA-derivatives, described in Table 1, were screened for their ability to cleave thioester linkage in [^14C]palmitoyl˜CoA (a model thioester substrate of PPT1), mediating the release of free [^14C]palmitic acid, a process depicted in FIG. 2. […] [^14C]-palmitoyl-CoA was incubated for 1 hour with each of the HA derivatives and the reaction mixture was resolved by thin layer chromatography (TLC) followed by autoradiography. The free [^14C]-palmitate bands were visible and quantitated by densitometric analysis of the bands.

PPT1-KO mice [2] = experiment: NeuN immunohistochemistry of cortical tissue sections of PPT1-KO mice; format: in vivo, mouse; conditions: brain sections vs untreated PPT1-KO mice (FIG. 18)
Method: The NtBuHA treated and untreated mouse brain tissues were fixed in 3.7% paraformaldehyde, embedded in paraffin and processed for histological analyses. Briefly, after being treated with xylene and then successively with different concentrations of ethanol in phosphate buffered saline (PBS) (100% to 0%), tissue sections were blocked with 5% BSA in PBS. Sections were then probed overnight with anti-synaptophysin (Abcam) and anti-GFAP followed by incubation with alexa fluor 594 conjugated anti-rabbit and anti-mouse secondary antibodies (Invitrogen). Sections were mounted with DAPI containing mounting medium and imaged using Zeiss LSM 510 Inverted Meta confocal microscope (Carl Zeiss).
It has been reported that postmortem brain tissues from INCL patients as well as those from PPT1-KO mice manifest high levels of oxidative stress, which induces neuronal apoptosis contributing to neuropathology. […] Accordingly, a terminal deoxynucleotidyl transferase dUTP nick end labeling (TUNEL) assay was performed using cortical tissue sections from wild-type, untreated PPT1-KO and NtBuHA-treated PPT1-KO mice to determine the level of apoptosis. […] Quantitative analysis of the NeuN-positive cells in brain tissues from wild-type, untreated and NtBuHA-treated PPT1-KO mice (FIG. 18D) confirmed the visual assessment.

PPT1-KO mice [3] = experiment: Survival of PPT1-KO mice; format: in vivo, mouse; conditions: 5.5 months after initiation; treatment from 3 months of age; 52 out of 59 mice; untreated 10%
Method: All animal experiments were performed according to the institutional guidelines after an animal protocol was approved by the Animal Care and Use Committee of the National Institute of Child Health and Development, National Institutes of Health. PPT1-KO mice (a gift from Dr. S. L. Hofmann, University of Texas Southwestern Medical Center at Dallas, Dallas, Tex., USA) were generated by targeted disruption of the last exon in the PPT1 gene in embryonic stem (ES) cells. These mice were subsequently backcrossed for 10 generations with wild type C57BL/6 mice in order to obtain congenic C57 background and a breeding pair was provided by Dr. Mark Sands to start the inventors' colony. Animals were housed and maintained in a pathogen-free facility. Three-month old PPT-KO mice were given NtBuHA in their drinking water (1 mM NtBuHA and 1 mM NaCl).
For this study, 3-month old PPT1-KO mice were divided into two groups. In the first group, 55 mice received no treatment (control). In the second group, 59 mice were treated with NtBuHA. The status of all mice was monitored on a daily basis.

PPT1-KO mice [4] = experiment: TUNEL assay of cortical tissue sections of PPT1-KO mice; format: in vivo, mouse; conditions: cortical tissue vs untreated PPT1-KO mice (FIG. 16)
Method: It has been reported that postmortem brain tissues from INCL patients as well as those from PPT1-KO mice manifest high levels of oxidative stress, which induces neuronal apoptosis contributing to neuropathology. […] Accordingly, a terminal deoxynucleotidyl transferase dUTP nick end labeling (TUNEL) assay was performed using cortical tissue sections from wild-type, untreated PPT1-KO and NtBuHA-treated PPT1-KO mice to determine the level of apoptosis. […] Since elevated levels of apoptosis in the brain of PPT1-KO mice and INCL patients mediate progressive decline in number of cortical neurons, the inventors also sought to further confirm whether decreased apoptosis in NtBuHA-treated PPT1-KO mice prevented neuronal loss. Accordingly, an immunohistochemical analyses of cortical tissue sections from wild-type, untreated-PPT1-KO, and NtBuHA-treated PPT1-KO mice was performed using antibodies against a neuronal marker, NeuN. […] Quantitative analysis of the NeuN-positive cells in brain tissues from wild-type, untreated and NtBuHA-treated PPT1-KO mice (FIG. 18D) confirmed the visual assessment.

PPT1-KO mice [5] = experiment: Blood methemoglobin level in PPT1-KO mice; format: in vivo, mouse
Method: The ability of the HA-derivative NtBuHA to increase methemoglobin levels was tested by placing PPT1-KO mice on a diet containing NtBuHA. After three months on the diet, the level of methemoglobin in the animal's blood was measured.

PPT1-KO mice [6] = experiment: Rotarod Performance Test, motor coordination of PPT1-KO mice; format: in vivo, mouse; conditions: 6-month and 8-month old PPT1-KO mice (FIG. 19A-D)
Method: Motor coordination of the untreated- and NtBuHA-treated PPT1-KO mice was assessed using Rotarod) (UGO Basile, Italy) at three different speeds (4, 8 and 12 rpm). In all these speeds the direction of rotation was reversed every 15 seconds. Animals were trained twice at all speed settings for 1 minute each for 3 days. Animals were then given a rest for 1 minute between two trials. Rotarod experiments were performed for at least 60 seconds on day 4 and the amount of time a mouse was on the rotarod before falling from the rotating rod was recorded.
Since NtBuHA functionally mimics PPT1, the inventors tested 6-month and 8-month old wild-type, untreated- and NtBuHA-treated PPT1-KO mice for motor coordination and exploratory behavior. The Rotarod Performance Test, which measures parameters such as riding time (seconds) and/or endurance was used to measure motor coordination. The open field test was utilized to evaluate the exploratory behavior.

## CC(C)(C)NO [NtBuHA, N-(tert-Butyl)hydroxylamine]
INCL lymphoblasts; then 500 μM H2O2 3 hours in presence of NtBuHA (FIG. 15)
  H2O2-induced apoptosis, pre- and co-treated cells: no alteration in apoptosis above the base level
INCL lymphoblasts; then 500 μM H2O2 3 hours without NtBuHA (FIG. 15)
  H2O2-induced apoptosis, pretreated cells: failed to induce apoptosis above the base level
[1]
  dose- and time-dependence of thioester linkage cleavage in [14C]palmitoyl-CoA: cleaved the thioester linkage in a dose-dependent and time-dependent manner
PPT1-KO mice [2]
  NeuN-positive cells: modestly higher level of NeuN-positive cells
PPT1-KO mice [3]
  mice still alive: 88%
PPT1-KO mice [4]
  TUNEL-positive apoptotic cells: appreciably lower levels of TUNEL-positive apoptotic cells
PPT1-KO mice [5]; individual NtBuHA-treated PPT1-KO mice, three months on diet, blood
  % Methemoglobin: 0% and 0.5% and 0.7% and 0.6%
PPT1-KO mice [5]; mean of 4 NtBuHA-treated PPT1-KO mice, three months on diet, blood
  % Methemoglobin, Mean: 0.45%
PPT1-KO mice [5]; treatment up to three months
  effect on methemoglobin levels: does not increase methemoglobin levels
PPT1-KO mice [6]
  motor function (Rotarod): retained near normal motor function
